Consider 30 molecules from US20250171431A1, “HETEROCYCLIC INHIBITORS OF IGF-1R FOR TREATMENT OF DISEASE” (HORIZON THERAPEUTICS IRELAND DAC, priority 2023, published 2025).

The target of the assay is IGF-1R (Homo sapiens (Human), UniProt P08069). Briefly: Example B-1: IGF-1R Assay (PC3 cells, IGF1 stimulation, AlphaLISA). Format: cell-based. To be noted: 200 ng/mL IGF1 stimulation, read-out: Biological Activity against IGF-1R IC50. In short, it runs like this: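 Readout is AlphaLISA signal from lysed PC3 cells, expressed as % inhibition versus vehicle and EC80 controls and banded by IC50. Before lysis, the cells were starved of serum for 2 h, exposed to 3× serially diluted compound for 2 h, and stimulated for 30 min with 200 ng/mL IGF1 (final).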
Sequence of IGF-1R (P08069 31-1367): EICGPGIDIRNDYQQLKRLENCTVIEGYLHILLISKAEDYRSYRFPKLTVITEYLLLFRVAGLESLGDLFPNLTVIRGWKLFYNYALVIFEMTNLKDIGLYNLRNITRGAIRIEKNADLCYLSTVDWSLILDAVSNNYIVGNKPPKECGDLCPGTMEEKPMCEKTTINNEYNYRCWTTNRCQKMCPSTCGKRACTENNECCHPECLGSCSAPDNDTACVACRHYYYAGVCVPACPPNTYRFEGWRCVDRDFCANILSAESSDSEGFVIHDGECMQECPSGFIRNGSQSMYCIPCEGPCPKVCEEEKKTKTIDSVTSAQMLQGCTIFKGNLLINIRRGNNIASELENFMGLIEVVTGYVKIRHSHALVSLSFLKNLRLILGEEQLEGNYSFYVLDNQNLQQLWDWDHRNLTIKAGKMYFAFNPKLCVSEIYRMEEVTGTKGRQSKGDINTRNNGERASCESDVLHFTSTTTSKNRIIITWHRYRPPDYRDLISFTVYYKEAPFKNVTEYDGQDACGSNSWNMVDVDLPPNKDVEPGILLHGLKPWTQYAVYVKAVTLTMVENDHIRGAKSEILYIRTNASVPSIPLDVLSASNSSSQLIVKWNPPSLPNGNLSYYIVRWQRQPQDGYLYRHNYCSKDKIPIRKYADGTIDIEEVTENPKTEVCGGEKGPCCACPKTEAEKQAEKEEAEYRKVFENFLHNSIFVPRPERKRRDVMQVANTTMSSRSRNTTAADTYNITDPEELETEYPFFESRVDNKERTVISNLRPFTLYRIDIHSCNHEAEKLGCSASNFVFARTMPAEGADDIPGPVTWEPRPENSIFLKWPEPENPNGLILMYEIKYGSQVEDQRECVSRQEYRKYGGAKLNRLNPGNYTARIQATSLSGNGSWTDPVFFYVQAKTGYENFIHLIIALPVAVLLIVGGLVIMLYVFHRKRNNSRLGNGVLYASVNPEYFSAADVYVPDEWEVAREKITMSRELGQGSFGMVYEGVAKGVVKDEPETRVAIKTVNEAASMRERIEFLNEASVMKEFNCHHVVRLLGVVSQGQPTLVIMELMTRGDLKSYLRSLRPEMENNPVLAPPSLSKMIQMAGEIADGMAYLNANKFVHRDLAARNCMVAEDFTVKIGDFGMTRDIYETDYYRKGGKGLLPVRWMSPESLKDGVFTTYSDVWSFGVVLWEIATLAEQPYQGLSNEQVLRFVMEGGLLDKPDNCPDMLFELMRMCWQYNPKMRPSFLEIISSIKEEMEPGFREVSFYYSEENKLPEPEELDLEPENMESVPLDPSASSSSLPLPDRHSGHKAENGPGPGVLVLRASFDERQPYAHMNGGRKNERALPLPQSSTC
(In Alpha technology, singlet oxygen from a donor bead excites a nearby acceptor bead.)
In general, IC50 refers to the midpoint of a concentration-inhibition curve. Consider `COc1cc(N2CCN(CC#N)CC2)ncc1Nc1nccc(Nc2cc3cccc(F)c3[nH]c2=O)n1` [Compound 226, (4-{5-[4-(8-fluoro-2-oxo-1,2-dihydro-3-quinolylamino)-2-pyrimidinylamino]-4-methoxy-2-pyridyl}-1-piperazinyl)acetonitrile], for which the IC50 is at most 0.5 µM.

Turning to `COc1nc(N2CCC(O)(C(F)(F)F)CC2)ccc1Nc1nccc(Nc2cc3cccc(F)c3[nH]c2=O)n1` [Compound 227, 8-fluoro-3-(2-{6-[4-hydroxy-4-(trifluoromethyl)-1-piperidyl]-2-methoxy-3-pyridylamino}-4-pyrimidinylamino)-1,2-dihydro-2-quinolinone], the IC50 was at most 0.5 µM.

Consider `COc1cc(Nc2nccc(Nc3cc4cccc(F)c4[nH]c3=O)n2)cnc1N1CCC(O)(C(F)(F)F)CC1` [Compound 228, 8-fluoro-3-(2-{6-[4-hydroxy-4-(trifluoromethyl)-1-piperidyl]-5-methoxy-3-pyridylamino}-4-pyrimidinylamino)-1,2-dihydro-2-quinolinone], for which the 50% inhibitory concentration (IC50) was at most 0.5 µM.

As to `COc1cc(Nc2nccc(Nc3cc4cccc(F)c4[nH]c3=O)n2)cnc1N1CCN(C)C(C)(C)C1` [Compound 229, 3-{2-[6-(3,3-dimethyl-4-methyl-1-piperazinyl)-5-methoxy-3-pyridylamino]-4-pyrimidinylamino}-8-fluoro-1,2-dihydro-2-quinolinone], the 50% inhibitory concentration (IC50) was at most 0.5 µM.

With `COc1cc(N2CCC(C)(O)CC2)ncc1Nc1nccc(Nc2cc3cccc(F)c3[nH]c2=O)n1` [Compound 230, 8-fluoro-3-{2-[6-(4-hydroxy-4-methyl-1-piperidyl)-4-methoxy-3-pyridylamino]-4-pyrimidinylamino}-1,2-dihydro-2-quinolinone], the half-inhibitory concentration (IC50) is at most 0.5 µM.

On to `COc1nc(N2CCC(C)(O)CC2)ccc1Nc1nccc(Nc2cc3cccc(F)c3[nH]c2=O)n1` [Compound 231, 8-fluoro-3-{2-[6-(4-hydroxy-4-methyl-1-piperidyl)-2-methoxy-3-pyridylamino]-4-pyrimidinylamino}-1,2-dihydro-2-quinolinone], for which the 50% inhibitory concentration (IC50) was at most 0.5 µM.

In the case of `COc1cc(Nc2nccc(Nc3cc4cccc(F)c4[nH]c3=O)n2)cnc1N1CCN(CC(F)(F)F)CC1` [Compound 232, 8-fluoro-3-(2-{5-methoxy-6-[4-(2,2,2-trifluoroethyl)-1-piperazinyl]-3-pyridylamino}-4-pyrimidinylamino)-1,2-dihydro-2-quinolinone], the half-inhibitory concentration (IC50) is at most 0.5 µM.

Take `COc1cc(Nc2nccc(Nc3cc4cccc(F)c4[nH]c3=O)n2)cnc1N1CCNC(C(F)F)C1` (stereo not drawn) [Compound 233, 3-(2-{6-[3-(difluoromethyl)-1-piperazinyl]-5-methoxy-3-pyridylamino}-4-pyrimidinylamino)-8-fluoro-1,2-dihydro-2-quinolinone]: the IC50 was at most 0.5 µM.

For `COc1cc(Nc2nccc(Nc3cc4cccc(F)c4[nH]c3=O)n2)cnc1N1CC2(COC2)C1` [Compound 234, 8-fluoro-3-(2-{5-methoxy-6-(2-oxa-6-aza-6-spiro[3.3]heptyl)-3-pyridylamino}-4-pyrimidinylamino)-1,2-dihydro-2-quinolinone], the IC50 is at most 0.5 µM.

`COc1cc(Nc2nccc(Nc3cc4cccc(F)c4[nH]c3=O)n2)cnc1N1CCNCC1` [Compound 235, 8-fluoro-3-{2-[5-methoxy-6-(1-piperazinyl)-3-pyridylamino]-4-pyrimidinylamino}-1,2-dihydro-2-quinolinone]: the IC50 was at most 0.5 µM.

`COc1cc(Nc2nccc(Nc3cc4cccc(F)c4[nH]c3=O)n2)cnc1N1CCN(CC#N)CC1` [Compound 236, (4-{5-[4-(8-fluoro-2-oxo-1,2-dihydro-3-quinolylamino)-2-pyrimidinylamino]-3-methoxy-2-pyridyl}-1-piperazinyl)acetonitrile]: the 50% inhibitory concentration (IC50) was at most 0.5 µM.

In the case of `COc1cc(Nc2nccc(Nc3cc4cccc(F)c4[nH]c3=O)n2)cnc1N1CCN(C2COC2)CC1` [Compound 237, 8-fluoro-3-(2-{5-methoxy-6-[4-(3-oxetanyl)-1-piperazinyl]-3-pyridylamino}-4-pyrimidinylamino)-1,2-dihydro-2-quinolinone], the IC50 is at most 0.5 µM.

As for `COc1cc(Nc2nccc(Nc3cc4cccc(F)c4[nH]c3=O)n2)cnc1N1CCNC(C(C)(C)O)C1` (stereo not drawn) [Compound 238, 8-fluoro-3-(2-{6-[3-(1-hydroxy-1-methylethyl)-1-piperazinyl]-5-methoxy-3-pyridylamino}-4-pyrimidinylamino)-1,2-dihydro-2-quinolinone], the IC50 was at most 0.5 µM.

Take `COc1cc(Nc2nccc(Nc3cc4cccc(F)c4[nH]c3=O)n2)cnc1N1CCNC(C(F)(F)F)C1` (stereo not drawn) [Compound 239, 8-fluoro-3-(2-{5-methoxy-6-[3-(trifluoromethyl)-1-piperazinyl]-3-pyridylamino}-4-pyrimidinylamino)-1,2-dihydro-2-quinolinone]: the IC50 is at most 0.5 µM.

Consider `COc1cc(Nc2nccc(Nc3cc4cccc(F)c4[nH]c3=O)n2)cnc1N1CCS(=N)(=O)CC1` [Compound 240, 4-{5-[4-(8-fluoro-2-oxo-1,2-dihydro-3-quinolylamino)-2-pyrimidinylamino]-3-methoxy-2-pyridyl}-1-imino-1λ^6,4-thiazinan-1-one], for which the concentration for half-maximal inhibition (IC50) was over 10 µM.

`COc1cc(Nc2nccc(Nc3cc4cccc(F)c4[nH]c3=O)n2)cnc1N1CCOCC1` [Compound 241, 8-fluoro-3-[2-(5-methoxy-6-morpholino-3-pyridylamino)-4-pyrimidinylamino]-1,2-dihydro-2-quinolinone]: the IC50 was at most 0.5 µM.

Consider `COc1cc(Nc2ncc(F)c(Nc3cc4cccc(F)c4[nH]c3=O)n2)ccc1O[C@H]1C[C@@H](N(C)C)C1` [Compound 242, 8-fluoro-3-(5-fluoro-2-{3-methoxy-4-[(1s,3s)-3-(dimethylamino)cyclobutoxy]phenyl-amino}-4-pyrimidinylamino)-1,2-dihydro-2-quinolinone], for which the IC50 lay in the range of 2 to 10 µM.

With `CN(C)CC1Cc2ccc(Nc3nccc(Nc4cc5cccc(F)c5[nH]c4=O)n3)cc2O1` (stereo not drawn) [Compound 243, 3-(2-{2-[(dimethylamino)methyl]-2,3-dihydro-1-benzofuran-6-ylamino}-4-pyrimidinylamino)-8-fluoro-1,2-dihydro-2-quinolinone], the IC50 was at most 0.5 µM.

Turning to `COc1cc(Nc2nccc(Nc3cc4ccc(F)cc4[nH]c3=O)n2)cnc1O[C@H]1C[C@@H](N(C)C)C1` [Compound 244, 7-fluoro-3-(2-{5-methoxy-6-[(1s,3s)-3-(dimethylamino)cyclobutoxy]-3-pyridylamino}-4-pyrimidinylamino)-1,2-dihydro-2-quinolinone], the IC50 is at most 0.5 µM.

As to `CN(C)CC1COc2cc(Nc3nccc(Nc4cc5cc(Cl)ccc5[nH]c4=O)n3)ccc2O1` (stereo not drawn) [Compound 245, 6-chloro-3-(2-{2-[(dimethylamino)methyl]-2,3-dihydro-1,4-benzodioxin-6-ylamino}-4-pyrimidinylamino)-1,2-dihydro-2-quinolinone], the IC50 is at most 0.5 µM.

For the molecule `COc1cc(Nc2nccc(Nc3cc4cccc(F)c4[nH]c3=O)n2)cnc1O[C@H]1C[C@@H](N(C)C)C1` [Compound 246, 8-fluoro-3-(2-{5-methoxy-6-[(1s,3s)-3-(dimethylamino)cyclobutoxy]-3-pyridylamino}-4-pyrimidinylamino)-1,2-dihydro-2-quinolinone], the IC50 was at most 0.5 µM.

In the case of `CN(C)[C@H]1C[C@H](Oc2ccc(Nc3nccc(Nc4cc5ccccc5[nH]c4=O)n3)cc2)C1` [Compound 248, 3-(2-{p-[(1r,3r)-3-(dimethylamino)cyclobutoxy]phenylamino}-4-pyrimidinyl-amino)-2(1H)-quinolinone], the 50% inhibitory concentration (IC50) is at most 0.5 µM.

Take `COc1cc(Nc2nccc(Nc3cc4ccccc4[nH]c3=O)n2)ccc1O[C@H]1C[C@H](N(C)C)C1` [Compound 249, 3-(2-{3-methoxy-4-[(1r,3r)-3-(dimethylamino)cyclobutoxy]phenyl-amino}-4-pyrimidinylamino)-2(1H)-quinolinone]: the half-maximal inhibitory concentration (IC50) was at most 0.5 µM.

As for `COc1cc(Nc2nccc(Nc3cc4ccccc4[nH]c3=O)n2)ccc1OCCCN1CCCCC1` [Compound 250, 3-{2-[3-methoxy-4-(3-piperidinopropoxy)phenylamino]-4-pyrimidinylamino}-2(1H)-quinolinone], the IC50 is at most 0.5 µM.

In the case of `O=c1[nH]c2ccccc2cc1Nc1ccnc(Nc2ccc(OCCCN3CCOCC3)cc2)n1` [Compound 251, 3-{2-[p-(3-morpholinopropoxy)phenylamino]-4-pyrimidinylamino}-2(1H)-quinolinone], the 50% inhibitory concentration (IC50) is at most 0.5 µM.

For `COc1cc(Nc2nc(N)cc(Nc3cnc4cc(F)c(F)cc4c3)n2)cnc1O[C@H]1C[C@@H](N(C)C)C1` [Compound 252, 6-amino-4-(6,7-difluoro-3-quinolylamino)-2-{5-methoxy-6-[(1s,3s)-3-(dimethylamino)cyclobutoxy]-3-pyridylamino}pyrimidine], the IC50 fell in the range of 2 to 10 µM.

Take `COc1cc(Nc2nccc(Nc3cnc4cc(F)c(F)cc4c3)n2)cnc1O[C@@H]1C[C@H](N(C)C)C1(C)C` [Compound 254, 2-{6-[(1R,3S)-3-(dimethylamino)-2,2-dimethylcyclobutoxy]-5-methoxy-3-pyridylamino}-4-(6,7-difluoro-3-quinolylamino)pyrimidine]: the IC50 is at most 0.5 µM.

`COc1cc(Nc2ncc(F)c(Nc3cc4ccccc4nc3C(N)=O)n2)cnc1O[C@H]1C[C@@H](N(C)C)C1` [Compound 255, 3-(5-fluoro-2-{5-methoxy-6-[(1s,3s)-3-(dimethylamino)cyclobutoxy]-3-pyridylamino}-4-pyrimidinylamino)-2-quinolinecarboxamide]: the concentration for half-maximal inhibition (IC50) was at most 0.5 µM.

With `COc1cc(Nc2nccc(Nc3cc4c(nc3C(N)=O)CCCC4)n2)ccc1O[C@H]1C[C@@H](N(C)C)C1` [Compound 256, 3-(2-{3-methoxy-4-[(1s,3s)-3-(dimethylamino)cyclobutoxy]phenylamino}-4-pyrimidinylamino)-5,6,7,8-tetrahydro-2-quinolinecarboxamide], the IC50 is at most 0.5 µM.

As to `COc1cc(Nc2nccc(Nc3cnc4ccc(Cl)cc4c3)n2)cnc1OC1CCNCC1(F)F` (stereo not drawn) [Compound 257, 4-(6-chloro-3-quinolylamino)-2-[6-(3,3-difluoro-4-piperidyloxy)-5-methoxy-3-pyridylamino]pyrimidine], the IC50 is at most 0.5 µM.
